Measured values as given in article doi:10.1101/2021.10.07.463234v2 (biorxiv, 2021).
Where a name gives a salt, the structure may show the parent alone.

Target: SARS-CoV-2 Mac1 (Severe acute respiratory syndrome coronavirus 2, UniProt P0DTD1)
Assay: biochemical
Details: for %inhibition: 100 µM, inhibitor; for inhibition at 100 µM: read-out: %inhibition

Row | Structure (SMILES) | %inhibition [%] | inhibition at 100 µM [%]
1 | CO/N=C(\C(=O)N[C@@H]1C(=O)N2C(C(=O)O)=C(CSC(=O)c3ccco3)CS[C@H]12)c1csc(N)n1 [Ceftiofur] | 0 | 
2 | CO/N=C(\C(=O)N[C@@H]1C(=O)N2C(C(=O)O)=CCS[C@H]12)c1csc(N)n1 [Ceftizoxime] |  | 12.3
3 | CO/N=C(\C(=O)N[C@@H]1C(=O)N2C(C(=O)O)=C(CSc3nc(=O)c(O)nn3C)CS[C@H]12)c1csc(N)n1 [Ceftriaxone Sodium Trihydrate] | 0.1034 | 
4 | CO/N=C(\C(=O)N[C@@H]1C(=O)N2C(C(=O)O)=C(CSc3nc(=O)c(O)nn3C)CS[C@H]12)c1csc(N)n1 [Ceftriaxone Sodium] | 17.28 | 
5 | CO/N=C(\C(=O)N[C@@H]1C(=O)N2C(C(=O)OC(C)OC(C)=O)=C(COC(N)=O)CS[C@H]12)c1ccco1 (stereo partly shown) [Cefuroxime axetil] |  | 0
6 | CO/N=C(\C(=O)N[C@@H]1C(=O)N2C(C(=O)O)=C(COC(N)=O)CS[C@H]12)c1ccco1 [Cefuroxime sodium] |  | 0
7 | Cc1ccc(-c2cc(C(F)(F)F)nn2-c2ccc(S(N)(=O)=O)cc2)cc1 [Celecoxib] |  | 10.4
8 | CC1=C(C(=O)O)N2C(=O)[C@@H](NC(=O)[C@H](N)c3ccccc3)[C@H]2SC1 [Cephalexin] |  | 0
9 | CC(=O)OCC1=C(C(=O)O)N2C(=O)[C@@H](NC(=O)Cc3cccs3)[C@H]2SC1 [Cephalothin] |  | 8.54
10 | CC(=O)OCC1=C(C(=O)O)N2C(=O)[C@@H](NC(=O)CSc3ccncc3)[C@H]2SC1 [Cephapirin Sodium] |  | 0
11 | COc1ccc2cc1Oc1ccc(cc1)C[C@H]1c3c(cc4c(c3Oc3cc5c(cc3OC)CCN(C)[C@@H]5C2)OCO4)CCN1C [Cepharanthine] |  | 18.2
12 | CC1=C(C(=O)O)N2C(=O)[C@@H](NC(=O)[C@H](N)C3=CCC=CC3)[C@H]2SC1 [Cephradine monohydrate] | 0 | 
13 | CCS(=O)(=O)N1CCN(c2ccc(Nc3ncc(C(N)=O)c(NC4CC4)n3)cc2)CC1 [Cerdulatinib (PRT062070, PRT2070)] |  | 15.9
14 | Cc1cc(Nc2ncc(Cl)c(Nc3ccccc3S(=O)(=O)C(C)C)n2)c(OC(C)C)cc1C1CCNCC1 [Ceritinib (LDK378)] |  | 0
15 | CCCCCCCCCCCCCCCCOc1nc2ccc(C)cc2c(=O)o1 [Cetilistat] |  | 8.35
16 | O=C(O)COCCN1CCN(C(c2ccccc2)c2ccc(Cl)cc2)CC1 (stereo not shown) [Cetirizine DiHCl] |  | 1.2
17 | CCCCCCCCCCCCCCCC[N+](C)(C)C [Cetrimonium Bromide (CTAB)] |  | 25.1
18 | C[C@H](CCC(=O)O)[C@H]1CC[C@H]2[C@@H]3[C@H](O)C[C@@H]4C[C@H](O)CC[C@]4(C)[C@H]3CC[C@]12C [Chenodeoxycholic Acid] |  | 0
19 | O=C(N[C@H](CO)[C@H](O)c1ccc([N+](=O)[O-])cc1)C(Cl)Cl [Chloramphenicol] |  | 0
20 | NC(=NCCCCCCN=C(N)/N=C(\N)Nc1ccc(Cl)cc1)/N=C(\N)Nc1ccc(Cl)cc1 [Chlorhexidine?2HCl] | 7.76 | 
21 | NC(=NCCCCCCN=C(N)/N=C(\N)Nc1ccc(Cl)cc1)/N=C(\N)Nc1ccc(Cl)cc1 [Chlorhexidine] |  | 10
22 | CC(=O)O[C@]1(C(C)=O)CC[C@H]2[C@@H]3C=C(Cl)C4=CC(=O)CC[C@]4(C)[C@H]3CC[C@@]21C [Chlormadinone acetate] |  | 0
23 | CN1C(=O)CCS(=O)(=O)C1c1ccc(Cl)cc1 (stereo not shown) [Chlormezanone] |  | 20.4
24 | Cc1cc(O)ccc1Cl [Chlorocresol] |  | 24.2
25 | CCN(CC)CCOC(=O)c1ccc(N)cc1Cl [Chloroprocaine HCl] |  | 0

Row | Structure (SMILES) | %inhibition [%] | inhibition at 100 µM [%]
26 | CCN(CC)CCCC(C)Nc1ccnc2cc(Cl)ccc12 (stereo not shown) [Chloroquine Phosphate] | 4.168 | 
27 | NS(=O)(=O)c1cc2c(cc1Cl)N=CNS2(=O)=O [Chlorothiazide] |  | 0
28 | COc1ccc(C(Cl)=C(c2ccc(OC)cc2)c2ccc(OC)cc2)cc1 [Chlorotrianisene] |  | 0
29 | Oc1c(Cl)cc(Cl)c2cccnc12 [Chloroxine] |  | 10.2
30 | Cc1cc(O)cc(C)c1Cl [Chloroxylenol] |  | 0
31 | CN(C)CCC(c1ccc(Cl)cc1)c1ccccn1 (stereo not shown) [Chlorpheniramine Maleate] |  | 6.37
32 | CN(C)CCCN1c2ccccc2Sc2ccc(Cl)cc21 [Chlorpromazine HCl] |  | 0
33 | CCCNC(=O)NS(=O)(=O)c1ccc(Cl)cc1 [Chlorpropamide] |  | 0
34 | CN(C)CC/C=C1/c2ccccc2Sc2ccc(Cl)cc21 [Chlorprothixene hydrochloride] | 0 | 
35 | CN(C)CC/C=C1/c2ccccc2Sc2ccc(Cl)cc21 [Chlorprothixene] | 13.67 | 
36 | Cc1ccc2c(Cl)cc(Cl)c(O)c2n1 [Chlorquinaldol] |  | 1.48
37 | CN(C)[C@@H]1C(O)=C(C(N)=O)C(=O)[C@@]2(O)C(O)=C3C(=O)c4c(O)ccc(Cl)c4[C@@](C)(O)[C@H]3C[C@@H]12 [Chlortetracycline HCl] |  | 1.82
38 | NS(=O)(=O)c1cc(C2(O)NC(=O)c3ccccc32)ccc1Cl (stereo not shown) [Chlorthalidone] |  | 1.46
39 | C[C@H](CCC(=O)O)[C@H]1CC[C@H]2[C@@H]3[C@H](O)C[C@@H]4C[C@H](O)CC[C@]4(C)[C@H]3C[C@H](O)[C@]12C [Cholic acid] |  | 0
40 | C[N+](C)(C)CCO [Choline Chloride] |  | 0
41 | O=C(O)C(O)C(O)C(=O)O (stereo not shown) [Choline bitartrate] |  | 0
42 | O=C(O)c1cc(=O)c2ccccc2o1 [Chromocarb] |  | 21.6
43 | CC(C)C(=O)OCC(=O)[C@@]12O[C@H](C3CCCCC3)O[C@@H]1C[C@H]1[C@@H]3CCC4=CC(=O)C=C[C@]4(C)[C@H]3[C@@H](O)C[C@@]12C [Ciclesonide] |  | 0
44 | Cc1cc(C2CCCCC2)n(O)c(=O)c1 [Ciclopirox ethanolamine] | 12.57 | 
45 | Cc1cc(C2CCCCC2)n(O)c(=O)c1 [Ciclopirox] |  | 22.9
46 | Nc1ccn(C[C@@H](CO)OCP(=O)(O)O)c(=O)n1 [Cidofovir] |  | 0
47 | CC1(C)C[C@@H]1C(=O)N/C(=C\CCCCSC[C@H](N)C(=O)O)C(=O)O [Cilastatin] |  | 0
48 | CC(C)[C@H]1C(=O)N[C@@H](CCCN=C(N)N)C(=O)NCC(=O)N[C@@H](CC(=O)O)C(=O)N[C@H](Cc2ccccc2)C(=O)N1C [Cilengitide?trifluoroacetate] |  | 10.8
49 | COCCOC(=O)C1=C(C)NC(C)=C(C(=O)OC/C=C/c2ccccc2)C1c1cccc([N+](=O)[O-])c1 (stereo not shown) [Cilnidipine] |  | 0
50 | COc1ccc([C@]2(C#N)CC[C@@H](C(=O)O)CC2)cc1OC1CCCC1 [Cilomilast] |  | 1.61

Row | Structure (SMILES) | %inhibition [%] | inhibition at 100 µM [%]
51 | O=C1CCc2cc(OCCCCc3nnnn3C3CCCCC3)ccc2N1 [Cilostazol] |  | 7.33
52 | CN/C(=N\CCSCc1nc[nH]c1C)NC#N [Cimetidine] |  | 20.9
53 | C[C@@H](NCCCc1cccc(C(F)(F)F)c1)c1cccc2ccccc12 [Cinacalcet HCl] |  | 4.38
54 | CCCCOc1cc(C(=O)NCCN(CC)CC)c2ccccc2n1 [Cinchocaine] |  | 0
55 | O=C(O)c1cc(-c2ccccc2)nc2ccccc12 [Cinchophen] |  | 17.7
56 | COc1cc(/C=C/C(=O)N2CCN(CC(=O)N3CCCC3)CC2)cc(OC)c1OC [Cinepazide maleate] |  | 24.7
57 | CCn1nc(C(=O)O)c(=O)c2cc3c(cc21)OCO3 [Cinoxacin] |  | 0.626
58 | CC(C)(Oc1ccc(C2CC2(Cl)Cl)cc1)C(=O)O (stereo not shown) [Ciprofibrate] |  | 20.7
59 | COc1cc(N)c(Cl)cc1C(=O)N[C@H]1CCN(CCCOc2ccc(F)cc2)C[C@H]1OC [Cisapride hydrate] |  | 0
60 | COc1cc(N)c(Cl)cc1C(=O)N[C@@H]1CCN(CCCOc2ccc(F)cc2)C[C@@H]1OC [Cisapride] |  | 1.02
61 | COc1ccc(C[C@@H]2c3cc(OC)c(OC)cc3CC[N@+]2(C)CCC(=O)OCCCCCOC(=O)CC[N@@+]2(C)CCc3cc(OC)c(OC)cc3[C@H]2Cc2ccc(OC)c(OC)c2)cc1OC [Cisatracurium Besylate] | 1.897 | 
62 | CN(C)CCCC1(c2ccc(F)cc2)OCc2cc(C#N)ccc21 (stereo not shown) [Citalopram HBr] |  | 0
63 | C[N+](C)(C)CCOP(=O)(O)OP(=O)([O-])OC[C@H]1O[C@@H](n2ccc(N)nc2=O)[C@H](O)[C@@H]1O [Citicoline sodium] |  | 1.89
64 | CC(=O)NC1CCSC1=O (stereo not shown) [Citiolone] |  | 0
65 | O=C(O)CC(O)(CC(=O)O)C(=O)O [Citric acid trilithium salt tetrahydrate] |  | 0
66 | Nc1nc(Cl)nc2c1ncn2[C@H]1C[C@H](O)[C@@H](CO)O1 [Cladribine] |  | 1.17
67 | CC[C@H]1OC(=O)[C@H](C)[C@@H](O[C@H]2C[C@@](C)(OC)[C@@H](O)[C@H](C)O2)[C@H](C)[C@@H](O[C@@H]2O[C@H](C)C[C@H](N(C)C)[C@H]2O)[C@](C)(OC)C[C@@H](C)C(=O)[C@H](C)[C@@H](O)[C@]1(C)O [Clarithromycin] |  | 24.2
68 | CCCC(=O)OCOC(=O)C1=C(C)NC(C)=C(C(=O)OC)C1c1cccc(Cl)c1Cl (stereo not shown) [Clevidipine Butyrate] |  | 0
69 | Cc1cn([C@H]2O[C@@H](CO)[C@H](O)[C@H]2F)c(=O)[nH]c1=O [Clevudine] |  | 18.3
70 | CC(C)(C)C(=O)C(Oc1ccc(Cl)cc1)n1ccnc1 (stereo not shown) [Climbazole] |  | 18.5
71 | CCC[C@@H]1C[C@@H](C(=O)N[C@@H]([C@H]2O[C@H](SC)[C@H](OP(=O)(O)O)[C@@H](O)[C@H]2O)[C@H](C)Cl)N(C)C1 [Clindamycin Phosphate] |  | 0
72 | CCCCCCCCCCCCCCCC(=O)O[C@@H]1[C@@H](O)[C@@H](O)[C@@H]([C@H](NC(=O)[C@@H]2C[C@@H](CCC)CN2C)[C@H](C)Cl)O[C@@H]1SC [Clindamycin palmitate HCl] |  | 22.9
73 | CCC(C)(Oc1ccc(C2(c3ccc(OC(C)(CC)C(=O)O)cc3)CCCCC2)cc1)C(=O)O (stereo not shown) [Clinofibrate] |  | 0
